For test [1], the target named is T1, Z-alpha-1-antitrypsin (Z-A1AT) (Homo sapiens, UniProt P01009, E366K/V237A).
T1 construct: Z-alpha-1-antitrypsin was purified from human plasma; from tissue; host or cells: human plasma of ZZ homozygous donors
The experiment in a line: Inhibition of Z-alpha-1-antitrypsin polymerisation TR-FRET assay. Type of test: biochemical. As to conditions: mean, 5 nM Z-A1AT, 72 hours at 37° C. From the text: The potencies of the compounds of the invention for inhibition of Z-alpha-1-antitrypsin (Z-A1AT) polymerisation can be determined by a time-resolved fluorescence energy transfer (TR-FRET) assay performed on purified Z-A1AT as described herein. […] Mean activity data for the assay described below for compounds 1-4:
Inhibition of Z-Alpha-1-Antitrypsin Polymerisation Assay Protocol
Z-alpha-1-antitrypsin was purified from human plasma of donors homozygous for the Z-A1AT form. The purification was performed according to a published protocol (Lomas et al. Biochemistry 1993; 32:500-508) involving ammonium sulphate precipitation, thiol exchange fractionation, and anion exchange fractionation.
Purified Z-A1AT was diluted to 5 nM in PBS buffer with 0.01% Tween-20 and mixed with different concentrations of inhibitor compounds dissolved in DMSO, in 384-well assay plates. Following incubation for 72 hours at 37° C., the amount of Z-A1AT polymer was detected using a time-resolved fluorescence resonance energy transfer (TR-FRET) assay format, by adding an antibody detection mix to the assay plates. The detection mix contained an A1AT-polymer specific monoclonal antibody (Miranda et al. Hepatology 2010; 52: 1078-1088), Terbium-labelled anti-mouse antibody, a polyclonal rabbit anti-A1AT antibody, and an Alexa488-labelled anti-rabbit antibody. TR-FRET data were normalised to controls (DMSO vehicle control giving 0% inhibition, saturating concentrations of an active compound giving 100% inhibition), and IC50 values were derived by fitting 4-parameter logistic curves to the normalised data.
An antibody-based time-resolved fluorescence resonance energy transfer (TR-FRET) assay was used to monitor the polymerisation of 5 nM Z α1-antitrypsin following incubation with varying concentrations of compounds at 37° C. for 72 hours. This assay used the 2C1 monoclonal antibody that is specific to pathological polymers of α1-antitrypsin (Miranda et al. Hepatology 2010; 52: 1078-1088), a polyclonal antibody that binds to all forms of α1-antitrypsin, an anti-mouse IgG fluorescence donor (Eu-W1024) and an anti-rabbit IgG acceptor (APC).
On the technique in general: Time-resolved FRET reads energy transfer from a long-lived donor to a nearby acceptor.

For a further test, the system named is Z α1-antitrypsin polymer. As to conditions: 2 weeks of dosing; Hidvegi et al. Science 2010; cited from earlier work.

T1 sequence (P01009 25-418 V237A/E366K): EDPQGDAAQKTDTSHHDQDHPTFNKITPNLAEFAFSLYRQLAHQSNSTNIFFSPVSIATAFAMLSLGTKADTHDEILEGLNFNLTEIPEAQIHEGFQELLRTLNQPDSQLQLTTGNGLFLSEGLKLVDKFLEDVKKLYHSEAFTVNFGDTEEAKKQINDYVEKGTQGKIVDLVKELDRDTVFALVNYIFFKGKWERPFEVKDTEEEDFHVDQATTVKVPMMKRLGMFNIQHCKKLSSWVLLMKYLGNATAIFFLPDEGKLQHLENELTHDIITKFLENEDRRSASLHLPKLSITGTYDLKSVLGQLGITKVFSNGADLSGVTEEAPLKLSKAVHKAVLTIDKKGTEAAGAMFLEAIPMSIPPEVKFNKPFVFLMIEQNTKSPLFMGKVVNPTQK

As a reminder, the IC50 is the midpoint of a concentration-inhibition curve. The low end stands for inhibition by little substance, the high end for a need for much substance. With `CCC[C@@H](NC(=O)c1ccc(F)c2c1CC(=O)N2)[C@@H](O)c1cccc(C#N)c1Cl` [Compound 3, N-((1S,2R)-1-(2-chloro-3-cyanophenyl)-1-hydroxypentan-2-yl)-7-fluoro-2-oxoindoline-4-carboxamide], the concentration for half-maximal inhibition (IC50) in test [1] is 3.16 nM. Take `CCC[C@@H](NC(=O)c1ccc(F)c2c1CC(=O)N2)[C@@H](O)c1cccc(F)c1Cl` [Compound 4, N-((1S,2R)-1-(2-chloro-3-fluorophenyl)-1-hydroxypentan-2-yl)-7-fluoro-2-oxoindoline-4-carboxamide]: half-maximal inhibition in test [1] (IC50) was put at 6.31 nM. For `CCC[C@@H](NC(=O)c1cccc2c1CC(=O)N2)[C@@H](O)c1cccc(Cl)c1C` [Compound 2, N-((1S,2R)-1-(3-chloro-2-methylphenyl)-1-hydroxypentan-2-yl)-2-oxoindoline-4-carboxamide], the IC50 in test [1] is 2.51 nM. For `NC(=O)N1c2ccccc2C=Cc2ccccc21` [Carbamazapine], the “effects on liver polymer in Z α1-antitrypsin transgenic mice” value with Z α1-antitrypsin polymer is “pronounced effects”.
